# Results: ChEMBL document CHEMBL4433195, “Biphenyloxy-alkyl-piperidine and azepane derivatives as histamine H3 receptor ligands” (Bioorg Med Chem, 2017)
# Legend:
# Histamine H3 receptor [1] = biological target: T1, Histamine H3 receptor (Homo sapiens, UniProt Q9Y5N1); experiment: Displacement of [3H]-N-alpha-methylhistamine from human recombinant full length H3R expressed in HEK293 cell membranes incubated for 90 mins by liquid scintillation counting method
# Histamine H4 receptor [2] = biological target: T2, Histamine H4 receptor (Homo sapiens, UniProt Q9H3N8); experiment: Antagonist activity at human H4R expressed in HEK293 cells incubated for 20 mins by [35S]GTPgammaS binding assay; format: functional, cell-based
# T2 sequence (Q9H3N8 whole entry): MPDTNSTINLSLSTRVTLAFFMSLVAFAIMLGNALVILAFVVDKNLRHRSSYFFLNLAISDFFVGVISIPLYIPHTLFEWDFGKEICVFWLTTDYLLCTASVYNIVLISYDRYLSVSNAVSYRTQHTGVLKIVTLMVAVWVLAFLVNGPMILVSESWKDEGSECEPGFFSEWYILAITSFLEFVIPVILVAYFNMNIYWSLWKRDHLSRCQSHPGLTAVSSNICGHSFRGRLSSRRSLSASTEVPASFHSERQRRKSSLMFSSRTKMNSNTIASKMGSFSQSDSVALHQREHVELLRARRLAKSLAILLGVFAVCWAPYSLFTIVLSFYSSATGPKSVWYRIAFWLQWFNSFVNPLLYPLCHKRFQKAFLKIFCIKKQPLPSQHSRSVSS
# [3] = biological target: T3, Voltage-gated inwardly rectifying potassium channel KCNH2 (Homo sapiens, UniProt Q12809); experiment: Displacement of [3H]Dofetilide from human ERG human expressed in HEK293 cells incubated for 45 mins; format: cell-based
# T3 sequence (Q12809 whole entry): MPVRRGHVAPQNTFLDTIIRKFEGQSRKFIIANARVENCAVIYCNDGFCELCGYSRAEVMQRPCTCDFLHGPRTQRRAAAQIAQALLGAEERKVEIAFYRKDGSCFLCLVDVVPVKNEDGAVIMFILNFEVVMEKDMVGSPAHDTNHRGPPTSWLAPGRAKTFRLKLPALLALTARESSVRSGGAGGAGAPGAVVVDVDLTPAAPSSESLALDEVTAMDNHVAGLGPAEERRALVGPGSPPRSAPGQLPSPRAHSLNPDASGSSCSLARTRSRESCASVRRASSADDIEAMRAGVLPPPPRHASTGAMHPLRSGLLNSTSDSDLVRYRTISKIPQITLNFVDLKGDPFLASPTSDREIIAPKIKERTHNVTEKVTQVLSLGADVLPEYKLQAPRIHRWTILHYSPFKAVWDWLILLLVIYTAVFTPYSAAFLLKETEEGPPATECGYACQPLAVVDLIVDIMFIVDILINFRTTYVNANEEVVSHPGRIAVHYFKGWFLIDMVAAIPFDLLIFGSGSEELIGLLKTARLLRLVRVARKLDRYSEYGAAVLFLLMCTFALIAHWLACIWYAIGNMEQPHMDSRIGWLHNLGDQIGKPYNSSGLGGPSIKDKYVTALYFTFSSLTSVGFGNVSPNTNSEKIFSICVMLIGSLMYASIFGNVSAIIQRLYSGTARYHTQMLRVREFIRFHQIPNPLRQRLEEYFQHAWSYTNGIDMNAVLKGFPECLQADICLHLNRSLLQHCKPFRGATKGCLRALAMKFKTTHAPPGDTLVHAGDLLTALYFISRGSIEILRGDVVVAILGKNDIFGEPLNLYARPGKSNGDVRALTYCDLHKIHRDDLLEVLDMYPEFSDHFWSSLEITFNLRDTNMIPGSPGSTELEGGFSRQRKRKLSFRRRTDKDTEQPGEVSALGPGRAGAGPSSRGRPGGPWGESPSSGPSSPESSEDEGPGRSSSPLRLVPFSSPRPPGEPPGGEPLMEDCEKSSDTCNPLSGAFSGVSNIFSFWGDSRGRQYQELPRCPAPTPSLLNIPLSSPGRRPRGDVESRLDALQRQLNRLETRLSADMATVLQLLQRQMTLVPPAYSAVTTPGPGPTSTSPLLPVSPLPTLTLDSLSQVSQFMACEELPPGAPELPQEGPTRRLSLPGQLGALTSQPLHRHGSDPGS
# Histamine H4 receptor [4] = biological target: T2, Histamine H4 receptor; experiment: Binding affinity to human H4R
# Histamine H3 receptor [5] = biological target: T1, Histamine H3 receptor; experiment: Binding affinity to human H3R expressed in rat C6 cells; format: cell-based
# [6] = biological target: T3, Voltage-gated inwardly rectifying potassium channel KCNH2
# Rattus norvegicus [7] = experiment: Reversal of RAMH-induced dipsogenia in Wistar rat (Krf:(WI) WU) assessed as inhibition of RAMH-induced drinking response at 1.25 mg/kg, ip pretreated for 30 mins followed by RAMH stimulation for 20 mins and measured for 30 mins; format: functional
# [8] = biological target: Muscarinic acetylcholine receptor M3 (Cavia porcellus) (UniProt Q8VH26); experiment: Antagonist activity at muscarinic M3 receptor in guinea-pig ileum assessed as inhibition of carbachol-induced contractions incubated for 15 mins; format: tissue-based
# Chain of Muscarinic acetylcholine receptor M3 (Cavia porcellus) (Q8VH26 1-587): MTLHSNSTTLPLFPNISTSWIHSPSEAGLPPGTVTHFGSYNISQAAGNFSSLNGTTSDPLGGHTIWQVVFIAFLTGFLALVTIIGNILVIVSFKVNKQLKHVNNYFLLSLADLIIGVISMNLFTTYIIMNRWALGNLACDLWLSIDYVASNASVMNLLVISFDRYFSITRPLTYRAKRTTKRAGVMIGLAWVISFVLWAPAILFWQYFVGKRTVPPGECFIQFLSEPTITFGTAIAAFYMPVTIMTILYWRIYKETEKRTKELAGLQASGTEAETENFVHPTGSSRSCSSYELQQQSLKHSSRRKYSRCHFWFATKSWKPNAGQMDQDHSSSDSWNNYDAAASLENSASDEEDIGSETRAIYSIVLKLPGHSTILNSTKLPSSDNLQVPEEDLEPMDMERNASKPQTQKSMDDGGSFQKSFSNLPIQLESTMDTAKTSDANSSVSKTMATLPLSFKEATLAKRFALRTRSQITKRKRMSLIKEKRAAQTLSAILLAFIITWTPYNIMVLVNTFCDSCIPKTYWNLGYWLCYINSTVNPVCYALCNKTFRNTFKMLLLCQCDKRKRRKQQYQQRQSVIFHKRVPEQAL
# Cytochrome P450 3A4 [9] = biological target: T4, Cytochrome P450 3A4 (Homo sapiens, UniProt P08684); experiment: Activation of human recombinant CYP3A4 using luciferin as substrate at 12.5 to 25 uM preincubated for 10 mins followed by substrate addition and measured after 50 mins in presence of NADPH by CYP450-Glo assay; format: ADME; conditions: recombinant enzyme
# T4 sequence (P08684 whole entry): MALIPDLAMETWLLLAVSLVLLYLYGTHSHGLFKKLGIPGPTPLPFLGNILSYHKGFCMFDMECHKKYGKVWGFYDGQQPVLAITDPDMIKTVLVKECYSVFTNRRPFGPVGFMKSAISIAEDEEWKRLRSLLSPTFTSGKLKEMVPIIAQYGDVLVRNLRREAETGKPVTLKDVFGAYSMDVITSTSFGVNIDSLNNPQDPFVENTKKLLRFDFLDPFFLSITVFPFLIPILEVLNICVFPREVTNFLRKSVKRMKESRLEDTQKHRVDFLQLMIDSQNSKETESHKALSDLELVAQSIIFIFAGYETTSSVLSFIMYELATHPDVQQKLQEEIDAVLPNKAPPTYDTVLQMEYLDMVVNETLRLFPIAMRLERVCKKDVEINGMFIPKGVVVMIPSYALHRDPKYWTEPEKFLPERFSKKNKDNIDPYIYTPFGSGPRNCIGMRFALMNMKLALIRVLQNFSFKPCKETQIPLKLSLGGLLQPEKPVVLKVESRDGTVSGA
# [10] = Metabolic stability in rat liver microsomes assessed as metabolite M3 formation at 50 uM preincubated for 5 mins followed by NADPH addition and measured after 30 mins UPLC-MS analysis; format: ADME, Microsome; conditions: 0.5 h
# [11] = Intrinsic clearance in rat liver microsomes measured up to 30 mins; format: ADME, Microsome; conditions: read-out: CLH
# Histamine H3 receptor [12] = biological target: T1, Histamine H3 receptor; experiment: Antagonist activity at human H3R expressed in HEK293 cells assessed as reduction in R)(-)-alpha methylhistamine-induced inhibition of forskolin-induced cAMP accumulation by TR-FRET based LANCE ultra cAMP immunoassay; format: functional, cell-based
# [13] = Metabolic stability in human recombinant liver microsomes assessed as metabolite M1 formation at 50 uM preincubated for 5 mins followed by NADPH addition and measured after 120 mins by UPLC-MS analysis; format: ADME, Microsome; conditions: 2 h
# [14] = Metabolic stability in rat liver microsomes assessed as metabolite M2 formation at 50 uM preincubated for 5 mins followed by NADPH addition and measured after 30 mins UPLC-MS analysis; format: ADME, Microsome; conditions: 0.5 h
# [15] = Metabolic stability in human recombinant liver microsomes assessed as metabolite M3 formation at 50 uM preincubated for 5 mins followed by NADPH addition and measured after 120 mins by UPLC-MS analysis; format: ADME, Microsome; conditions: 2 h
# [16] = Metabolic stability in human recombinant liver microsomes assessed as retention time at 50 uM preincubated for 5 mins followed by NADPH addition and measured after 120 mins by UPLC-MS analysis; format: ADME, Microsome; conditions: 2 h
# Cytochrome P450 3A4 [17] = biological target: T4, Cytochrome P450 3A4; experiment: Inhibition of human recombinant CYP3A4 using luciferin as substrate at 0.025 to 25 uM preincubated for 10 mins followed by substrate addition and measured after 50 mins in presence of NADPH by CYP450-Glo assay; format: ADME; conditions: recombinant enzyme
# Rattus norvegicus [18] = species: Rattus norvegicus; experiment: Reversal of RAMH-induced dipsogenia in Wistar rat (Krf:(WI) WU) assessed as inhibition of RAMH-induced drinking response pretreated for 30 mins followed by RAMH stimulation for 20 mins and measured for 30 mins; format: functional
# [19] = Metabolic stability in rat liver microsomes assessed as metabolite M1 formation at 50 uM preincubated for 5 mins followed by NADPH addition and measured after 30 mins UPLC-MS analysis; format: ADME, Microsome; conditions: 0.5 h
# [20] = Metabolic stability in rat liver microsomes assessed as retention time at 50 uM preincubated for 5 mins followed by NADPH addition and measured after 30 mins UPLC-MS analysis; format: ADME, Microsome; conditions: 0.5 h
# Histamine H4 receptor [21] = biological target: T2, Histamine H4 receptor; experiment: Displacement of [3H]histamine from human recombinant H4R expressed in CHO cells incubated for 60 mins by microbeta scintillation counter method; format: cell-based
# Histamine H1 receptor [22] = biological target: Histamine H1 receptor (Homo sapiens, UniProt P35367); experiment: Displacement of [3H]pyrilamine from human H1 receptor expressed in CHOK1 cells incubated for 60 mins by microbeta scintillation counter method; format: cell-based
# Chain of Histamine H1 receptor (Homo sapiens, UniProt P35367) (P35367 whole entry): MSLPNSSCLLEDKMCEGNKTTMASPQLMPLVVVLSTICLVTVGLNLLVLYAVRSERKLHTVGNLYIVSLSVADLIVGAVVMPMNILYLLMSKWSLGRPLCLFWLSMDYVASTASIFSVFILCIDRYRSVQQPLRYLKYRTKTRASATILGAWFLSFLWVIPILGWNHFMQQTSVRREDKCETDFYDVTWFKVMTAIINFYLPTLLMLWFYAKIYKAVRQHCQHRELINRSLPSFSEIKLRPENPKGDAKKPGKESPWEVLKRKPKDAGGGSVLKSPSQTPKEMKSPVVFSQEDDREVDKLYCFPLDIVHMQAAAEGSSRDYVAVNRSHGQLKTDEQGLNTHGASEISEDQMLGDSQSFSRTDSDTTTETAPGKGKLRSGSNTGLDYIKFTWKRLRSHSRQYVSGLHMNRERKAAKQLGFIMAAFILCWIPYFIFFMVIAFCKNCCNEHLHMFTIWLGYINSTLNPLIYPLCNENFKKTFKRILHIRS
# Histamine H1 receptor [23] = biological target: Histamine H1 receptor (Cavia porcellus, UniProt P31389); experiment: (§1) Antagonist activity at histamine H1 receptor in guinea-pig ileum assessed as inhibition of histamine-induced contractions incubated for 15 mins; format: tissue-based; conditions: read-out: pA2 (converted)
# Chain of Histamine H1 receptor (Cavia porcellus, UniProt P31389) (P31389 whole entry): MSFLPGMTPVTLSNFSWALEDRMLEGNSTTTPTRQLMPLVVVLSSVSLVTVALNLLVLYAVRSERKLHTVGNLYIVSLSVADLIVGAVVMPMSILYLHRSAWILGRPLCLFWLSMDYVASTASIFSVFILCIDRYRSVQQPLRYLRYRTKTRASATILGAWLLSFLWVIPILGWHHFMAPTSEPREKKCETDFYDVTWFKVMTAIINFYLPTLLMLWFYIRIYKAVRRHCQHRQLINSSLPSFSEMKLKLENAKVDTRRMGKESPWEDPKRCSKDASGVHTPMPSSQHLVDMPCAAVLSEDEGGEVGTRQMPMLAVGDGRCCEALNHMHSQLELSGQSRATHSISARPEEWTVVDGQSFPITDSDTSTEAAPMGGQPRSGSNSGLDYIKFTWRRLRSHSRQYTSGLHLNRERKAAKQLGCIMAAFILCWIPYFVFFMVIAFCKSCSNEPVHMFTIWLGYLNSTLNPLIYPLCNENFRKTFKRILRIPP
# [24] = biological target: Histamine H1 receptor (Cavia porcellus) (UniProt P31389); experiment: as §1; format: tissue-based
# Chain of Histamine H1 receptor (Cavia porcellus) (P31389 whole entry): as above
# [25] = Half life in rat liver microsomes measured up to 30 mins; format: ADME, Microsome
# [26] = Metabolic stability in human recombinant liver microsomes assessed as metabolite M formation at 50 uM preincubated for 5 mins followed by NADPH addition and measured after 120 mins by UPLC-MS analysis; format: ADME, Microsome; conditions: 2 h
# Cytochrome P450 2D6 = Cytochrome P450 2D6 (Homo sapiens, UniProt P10635); experiment: Inhibition of human recombinant CYP2D6 at >2.5 uM using luciferin as substrate preincubated for 10 mins followed by substrate addition and measured after 50 mins in presence of NADPH by CYP450-Glo assay; format: ADME; conditions: recombinant enzyme
# Chain of Cytochrome P450 2D6 (P10635 whole entry): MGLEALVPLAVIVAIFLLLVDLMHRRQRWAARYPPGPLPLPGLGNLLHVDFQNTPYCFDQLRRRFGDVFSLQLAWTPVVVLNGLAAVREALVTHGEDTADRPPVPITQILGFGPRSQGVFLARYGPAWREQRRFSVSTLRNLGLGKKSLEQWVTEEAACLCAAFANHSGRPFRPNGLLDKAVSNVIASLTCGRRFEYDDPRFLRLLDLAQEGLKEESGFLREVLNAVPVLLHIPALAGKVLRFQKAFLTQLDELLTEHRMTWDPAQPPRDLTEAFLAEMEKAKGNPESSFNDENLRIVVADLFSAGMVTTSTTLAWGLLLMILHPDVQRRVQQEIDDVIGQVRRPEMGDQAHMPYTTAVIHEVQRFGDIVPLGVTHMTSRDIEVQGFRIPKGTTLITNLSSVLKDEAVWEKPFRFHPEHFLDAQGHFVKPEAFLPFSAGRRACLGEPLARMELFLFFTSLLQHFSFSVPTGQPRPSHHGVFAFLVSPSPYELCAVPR
# [27] = Metabolic stability in human recombinant liver microsomes assessed as metabolite M2 formation at 50 uM preincubated for 5 mins followed by NADPH addition and measured after 120 mins by UPLC-MS analysis; format: ADME, Microsome; conditions: 2 h
# HepG2 = experiment: Cytotoxicity against human HepG2 cells assessed as cell viability incubated for 72 hrs by cellTiter 96 AQueous non-radioactive cell proliferation assay; format: cell-based; conditions: HepG2, 72 h
# Histamine H3 receptor [28] = biological target: T1, Histamine H3 receptor; experiment: Binding affinity to human H3R
# [29] = Mutagenicity in Salmonella typhimurium TA100 assessed as fold increase in number of positive wells over the solvent control baseline upto 10 uM incuabted for 90 mins and measured after 48 hrs by Ames test; format: toxicity; conditions: salmonella enterica subsp. enterica serovar typhimurium
# [30] = Mutagenicity in Salmonella typhimurium TA98 assessed as fold increase in number of positive wells over the solvent control baseline upto 10 uM incuabted for 90 mins and measured after 48 hrs by Ames test; format: toxicity; conditions: salmonella enterica subsp. enterica serovar typhimurium
# Homo sapiens = species: Homo sapiens; experiment: Selectivity ratio of Ki for human H4R to Ki for human H3R
# [31] = Ratio of test compound IC50 to doxorubicin IC50 for cytotoxicity against human HepG2 cells assessed as cell viability incubated for 72 hrs by cellTiter 96 AQueous non-radioactive cell proliferation assay; format: cell-based; conditions: read-out: Ratio IC50
# T1 sequence (Q9Y5N1 whole entry): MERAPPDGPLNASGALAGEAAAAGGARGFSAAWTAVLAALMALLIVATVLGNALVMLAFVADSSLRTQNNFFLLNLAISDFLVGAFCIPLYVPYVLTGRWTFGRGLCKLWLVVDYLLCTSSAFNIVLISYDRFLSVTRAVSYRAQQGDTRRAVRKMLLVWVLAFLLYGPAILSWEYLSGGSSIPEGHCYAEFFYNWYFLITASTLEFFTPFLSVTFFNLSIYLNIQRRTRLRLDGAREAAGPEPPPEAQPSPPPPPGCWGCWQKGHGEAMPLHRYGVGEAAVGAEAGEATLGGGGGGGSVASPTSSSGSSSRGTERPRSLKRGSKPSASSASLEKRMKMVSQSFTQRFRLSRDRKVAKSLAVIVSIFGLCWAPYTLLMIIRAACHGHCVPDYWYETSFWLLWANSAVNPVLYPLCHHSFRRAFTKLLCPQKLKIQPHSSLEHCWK
smiles,measurement,setting,value
c1ccc(-c2cccc(OCCCCCCN3CCCCCC3)c2)cc1,Ki,Histamine H3 receptor [1],18 nM
CC1CCN(CCCCCCOc2cccc(-c3ccccc3)c2)CC1,Ki,Histamine H3 receptor [1],159 nM
CC(C)(C)c1ccc(OCCCN2CCCCC2)cc1,Ki,Histamine H3 receptor [1],131 nM
CN1C[C@H]2CCN(c3ccc(-c4ccc(-n5ncccc5=O)cc4)cc3)[C@H]2C1,Ki,Histamine H4 receptor [2],> 10000 nM
same,Ki,[3],8830 nM
CC1CCN(CCCCCOc2cccc(-c3ccccc3)c2)CC1,Ki,Histamine H3 receptor [1],157 nM
CC1CCN(CCCCCOc2ccc(-c3ccccc3)cc2)CC1,Ki,Histamine H3 receptor [1],89 nM
c1ccc(-c2cccc(OCCCCCN3CCCCC3)c2)cc1,Ki,Histamine H3 receptor [1],76 nM
C[C@@H]1CC[C@@H](C)N1CCCOc1ccc(-c2ccc(C(=O)N3CCOCC3)cc2)cc1,Ki,Histamine H4 receptor [4],> 10000 nM
same,Ki,Histamine H3 receptor [5],0.42 nM
Clc1ccc(CCCOCCCN2CCCCC2)cc1 [PITOLISANT],IC50,[6],1700 nM
same,inhibition in vivo at 1.25 mg/kg,Rattus norvegicus [7],87%
CN1[C@@H]2CC[C@H]1C[C@@H](OC(=O)C(CO)c1ccccc1)C2 (stereo partly drawn),pKb,[8],8.99
O=C(O)C(=O)O.c1ccc(-c2ccc(OCCCCCN3CCCCCC3)cc2)cc1,Activity,Cytochrome P450 3A4 [9],Active
same,Drug metabolism,[10],Metabolite_Detected
same,CLint scaled,[11],52.9 mL/min/kg
same,Activity,Histamine H3 receptor [12],Dose-dependent effect
same,IC50,Histamine H3 receptor [12],9.08 nM
same,Drug metabolism,[13],Metabolite_Detected
same,Drug metabolism,[14],Metabolite_Detected
same,Drug metabolism,[15],Metabolite_Detected
same,Retention_time,[16],6.08 min
same,inhibition (INH),Cytochrome P450 3A4 [17],Not Active
same,ED50,Rattus norvegicus [18],1.75 mg/kg
same,inhibition,Rattus norvegicus [18],Dose-dependent effect
same,Ki,Histamine H3 receptor [1],34 nM
same,Drug metabolism,[19],Metabolite_Detected
same,Retention_time,[20],6 min
same,Ki,Histamine H4 receptor [21],21800 nM
same,Ki,Histamine H1 receptor [22],1270 nM
same,Kb,Histamine H1 receptor [23],724 nM
same,Activity,[24],Dose-dependent effect
same,half-life,[25],23.6 min
same,Drug metabolism,[26],Metabolite_Detected
same,inhibition (INH),Cytochrome P450 2D6,Active
same,pKb,[8],6.16
same,Drug metabolism,[27],Metabolite_Detected
c1ccc(-c2ccc(OCCCCCCN3CCCCCC3)cc2)cc1,Ki,Histamine H3 receptor [1],151 nM
COc1cccc2c1C(=O)c1c(O)c3c(c(O)c1C2=O)C[C@@](O)(C(=O)CO)C[C@@H]3O[C@H]1C[C@H](N)[C@H](O)[C@H](C)O1 [DOXORUBICIN],IC50,HepG2,392 nM
c1ccc(-c2ccc(OCCCCCCN3CCCCC3)cc2)cc1,Ki,Histamine H3 receptor [1],92 nM
c1ccc(-c2cccc(OCCCCCN3CCCCCC3)c2)cc1,Ki,Histamine H3 receptor [1],115 nM
CC1CCN(CCCCCCOc2ccc(-c3ccccc3)cc2)CC1,Ki,Histamine H3 receptor [1],266 nM
C[C@@H]1CCCN1[C@H]1C[C@H](c2ccc(-c3ccc(C#N)cc3)cc2)C1,Ki,Histamine H3 receptor [28],0.17 nM
O=C(O)C(=O)O.c1ccc(-c2ccc(OCCCCCN3CCCCC3)cc2)cc1,Activity,Cytochrome P450 3A4 [9],Active
same,fold change (FC),[29],< 2
same,fold change (FC),[30],< 2
same,Activity,Histamine H3 receptor [12],Dose-dependent effect
same,IC50,Histamine H3 receptor [12],4.04 nM
same,Drug metabolism,[13],Metabolite_Notdetected
same,IC50,[6],1750 nM
same,Drug metabolism,[15],Metabolite_Notdetected
same,Retention_time,[16],5.83 min
same,inhibition (INH),Cytochrome P450 3A4 [17],Not Active
same,ED50,Rattus norvegicus [18],2.72 mg/kg
same,inhibition,Rattus norvegicus [18],Dose-dependent effect
same,Ki,Histamine H3 receptor [1],25 nM
same,IC50,HepG2,17200 nM
same,Ratio Ki,Homo sapiens,600
same,Ki,Histamine H4 receptor [21],19900 nM
same,Kb,Histamine H1 receptor [23],295 nM
same,Activity,[24],Dose-dependent effect
same,selectivity ratio at 72 h,[31],> 30
same,Drug metabolism,[26],Metabolite_Notdetected
same,inhibition (INH),Cytochrome P450 2D6,Active
same,pKb,[8],6.35
same,Drug metabolism,[27],Metabolite_Notdetected
c1ccc(-c2cccc(OCCCCCCN3CCCCC3)c2)cc1,Ki,Histamine H3 receptor [1],122 nM
c1ccc(CN(CC2=NCCN2)c2ccccc2)cc1 [ANTAZOLINE],Kb,Histamine H1 receptor [23],72.4 nM
